ChEMBL document CHEMBL1177834, “ADMET rules of thumb II: A comparison of the effects of common substituents on a range of ADMET parameters” (Bioorg Med Chem, 2009)

Molecular target: Cytochrome P450 2C9 (Homo sapiens, UniProt P11712)
Test: Inhibition of CYP2C9
Type: ADME

Chain of Cytochrome P450 2C9 (P11712 whole entry): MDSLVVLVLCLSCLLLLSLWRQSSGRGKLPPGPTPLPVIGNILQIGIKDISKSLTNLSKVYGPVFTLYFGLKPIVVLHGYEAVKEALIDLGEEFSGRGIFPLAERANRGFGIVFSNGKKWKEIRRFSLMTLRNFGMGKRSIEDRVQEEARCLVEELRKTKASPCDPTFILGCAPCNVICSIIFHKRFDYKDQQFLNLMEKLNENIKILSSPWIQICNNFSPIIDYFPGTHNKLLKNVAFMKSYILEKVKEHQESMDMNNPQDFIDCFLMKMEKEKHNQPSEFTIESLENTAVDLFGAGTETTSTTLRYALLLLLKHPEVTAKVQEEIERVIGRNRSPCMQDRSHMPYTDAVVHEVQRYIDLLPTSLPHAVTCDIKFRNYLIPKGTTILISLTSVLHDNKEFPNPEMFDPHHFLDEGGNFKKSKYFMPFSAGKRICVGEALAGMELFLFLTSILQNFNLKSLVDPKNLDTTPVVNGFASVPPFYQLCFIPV

Point of comparison: `Cc1ccc2c(N3CCN(CCc4ccccc4)CC3)cccc2n1`, IC50 39.8 µM. Against it:
- O=C(N[C@@H](c1cccc(F)c1)C1CC1)c1c(Cc2cncnc2)c(-c2ccccc2)nc2ccccc12 — 4-fold lower, 10 µM
- O=C(Cn1c(CCc2cccc(F)c2F)nc(=O)c2cccnc21)N(Cc1ccc(-c2ccc(C(F)(F)F)cc2)cc1)C1CCN(c2ccncn2)CC1 — 400-fold lower, 0.1 µM
- Cc1ccc2c(N3CCN(CCc4ccc(F)cc4)CC3)cccc2n1 — within 1.5-fold, 31.6 µM
- Cc1ccc2c(N3CCN(CCc4cccc(-c5cncnc5)c4)CC3)cccc2n1 — 2-fold lower, 20 µM
- O=C(Cn1c(CCc2cccc(F)c2F)nc(=O)c2ccccc21)N(Cc1ccc(-c2ccc(C(F)(F)F)cc2)cc1)C1CCNCC1 — 2.5-fold lower, 15.8 µM
- Cc1c(-c2cccs2)nc2ccccc2c1C(=O)N[C@@H](C)C1CCCCC1 — 2-fold lower, 20 µM
- O=C(Cn1c(CCc2cccc(F)c2F)nc(=O)c2cccnc21)N(Cc1ccc(-c2ccc(C(F)(F)F)cc2)cc1)C1CCNCC1 — 2-fold lower, 20 µM
- O=C(Cn1c(CCc2cccc(F)c2F)nc(=O)c2ccccc21)N(Cc1ccc(-c2ccc(C(F)(F)F)cc2)cc1)C1CCN(c2ccncn2)CC1 — 500-fold lower, 0.0794 µM
- C[C@H](NC(=O)c1c(Cc2cncnc2)c(-c2cccs2)nc2ccccc12)C1CCCCC1 — within 1.5-fold, 31.6 µM
- Cc1c(-c2ccccc2)nc2ccccc2c1C(=O)N[C@@H](c1cccc(F)c1)C1CC1 — 5-fold lower, 7.94 µM
- Cc1ccc2c(N3CCN(CCc4ccc(F)c(-c5cncnc5)c4)CC3)cccc2n1 — 4-fold lower, 10 µM
